In patent US5795756A, “Method and compounds for the inhibition of adenylyl cyclase” (priority 1996, dated 1998):
Like-named read-outs stand apart in the source and are kept apart here.

Assays:
[1] = molecular target: rat brain adenylyl cyclase; test: Inhibition of detergent-dispersed rat brain adenylyl cyclase (Table I); type: biochemical; settings: for inhibition of adenylyl cyclase activity compared with adenosine: in words, relative to adenosine
Description: Detergent-dispersed adenylyl cyclase from rat brain was prepared as previously described^58. Activities were determined in a reaction mixture containing 50 mM N-[2-hydroxyethyl]-piperazine-N'-[2-ethanesulfonic acid] (HEPES) or 50 mM triethanolamine.cndot.HCl, pH 7.5, 5 mM MnCl2, 100 μM 5'ATP, [α-^32 p]5'ATP (ca. 2 to 5×10^5 dpm), 0.1% (w/v) Lubrol-PX, 1 mM 3-isobutyl-1-methyl-xanthine, 1 mM dithiothreitol, 1 mg bovine serum albumin per ml, 2 mM creatine phosphate, 100 μg creatine kinase per ml, and 100 μM forskolin, in a reaction volume of 100 μl. Reactions were for 15 min at 30° C. and were terminated by the addition of 0.6 ml 120 mM zinc acetate containing 0.5 mM cAMP and 0.5 ml 144 mM sodium carbonate as described by Jakobs et al.^59.
The resulting ZnCO3 precipitate was sedimented by centrifugation in a desktop microfuge. The [^32 P] cAMP in the supernatant fraction was then purified free of residual substrate and other contaminants by sequential chromatography on Dowex-50 and Al2 O3, as described by Salomon et al.^60. [^32 P]cAMP was quantified by Cherenkov radiation in a liquid scintillation spectrometer.
The synthesized adenine derivatives, 1-5, 8, 11-13, 16, 19-21, 34 and 35 were each tested separately in vitro for their ability to inhibit adenylyl cyclase activity by administration of each compound to the above-describedadenylyl cyclase assay.

[2] = molecular target: adenylyl cyclase, Type I, purified recombinant (Bos taurus, UniProt P19754); test: Inhibition of purified recombinant Type I adenylyl cyclase (Table II); type: biochemical; settings: forskolin eluate
Sequence of adenylyl cyclase, Type I, purified recombinant (P19754 whole entry): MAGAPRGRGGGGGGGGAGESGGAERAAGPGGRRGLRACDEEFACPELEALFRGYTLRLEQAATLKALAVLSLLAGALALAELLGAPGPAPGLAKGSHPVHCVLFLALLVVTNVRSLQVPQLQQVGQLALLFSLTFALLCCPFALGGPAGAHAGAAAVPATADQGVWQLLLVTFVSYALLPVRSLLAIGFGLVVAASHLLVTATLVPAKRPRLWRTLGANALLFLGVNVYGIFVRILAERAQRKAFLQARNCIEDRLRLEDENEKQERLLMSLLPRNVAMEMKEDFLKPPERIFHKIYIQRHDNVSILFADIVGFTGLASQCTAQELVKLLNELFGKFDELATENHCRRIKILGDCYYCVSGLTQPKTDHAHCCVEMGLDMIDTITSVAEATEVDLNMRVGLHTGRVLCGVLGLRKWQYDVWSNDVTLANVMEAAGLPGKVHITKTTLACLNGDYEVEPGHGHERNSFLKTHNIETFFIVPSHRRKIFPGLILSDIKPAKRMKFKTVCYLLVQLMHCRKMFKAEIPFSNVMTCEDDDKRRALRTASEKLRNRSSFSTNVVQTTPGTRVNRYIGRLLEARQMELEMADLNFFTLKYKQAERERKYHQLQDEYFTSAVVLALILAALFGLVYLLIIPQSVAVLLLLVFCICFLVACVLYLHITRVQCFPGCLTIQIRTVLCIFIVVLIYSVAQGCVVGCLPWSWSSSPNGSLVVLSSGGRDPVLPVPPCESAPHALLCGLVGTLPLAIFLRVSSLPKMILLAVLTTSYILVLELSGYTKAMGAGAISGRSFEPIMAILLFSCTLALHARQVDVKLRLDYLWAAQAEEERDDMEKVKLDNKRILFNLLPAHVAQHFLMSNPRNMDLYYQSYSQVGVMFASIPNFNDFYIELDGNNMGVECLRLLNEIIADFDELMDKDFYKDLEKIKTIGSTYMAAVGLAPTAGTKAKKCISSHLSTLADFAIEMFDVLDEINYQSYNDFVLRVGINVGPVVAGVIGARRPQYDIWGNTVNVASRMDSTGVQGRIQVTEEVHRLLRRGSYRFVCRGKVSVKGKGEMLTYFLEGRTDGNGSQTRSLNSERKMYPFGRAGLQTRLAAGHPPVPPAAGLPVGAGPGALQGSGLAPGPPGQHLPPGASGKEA

[3] = molecular target: rat brain adenylyl cyclase; settings: Table I, footnote a: values from Johnson et al. 1989; read-out: IC50 for inhibition of rat brain adenylyl cyclase; cited from earlier work
[4] = tested on: intestinal epithelium; settings: cited from earlier work
[5] = tested on: adenylyl cyclases; settings: related art, cited from earlier work; for inhibition of adenylyl cyclases via P-site: in words; for IC50: read-out: IC50 for inhibition of adenylyl cyclases
[6] = molecular target: adenylyl cyclase, bovine brain, purified; test: Inhibition of purified bovine brain adenylyl cyclase (Table II); type: biochemical; settings: forskolin eluates from forskolin affinity column
[7] = tested on: adenylyl cyclase; test: Inhibition of adenylyl cyclase in intact cells and tissues; type: cell-based; settings: cell permeable variants
[8] = Table I, 5 mM MnCl2, 100 μM 5'ATP, 100 μM forskolin, pH 7.5, 15 min at 30° C., read-out: IC50 for inhibition of rat brain adenylyl cyclase
[9] = Table II, rat brain, detergent extract, values from Table I, read-out: IC50, rat brain detergent extract
[10] = modified or replaced ribosyl moiety

C[C@H]1O[C@@H](n2cnc3c(N)ncnc32)C[C@@H]1OP(=O)(O)O [2'5'dd3'AMP]
IC50 [1, 8]: 460 nM | IC50 [1, 9]: 460 nM | IC50 [2]: 1990 nM

C[C@H]1O[C@@H](n2cnc3c(N)ncnc32)C[C@@H]1O [2',5'-dideoxyadenosine]
IC50 [3]: 2.7 µM | counteracting effects of cholera intoxication [4]: used to counteract the effects of cholera intoxication in intestinal epithelium

Nc1ncnc2c1ncn2[C@H]1C[C@H](O)[C@@H](CO)O1 [2'-deoxyadenosine]
IC50 [3]: 15 µM

Nc1ncnc2c1ncn2[C@H]1C[C@H](OP(=O)(O)O)[C@@H](CO)O1 [2'd3'AMP]
IC50 [3]: 1.2 µM

Nc1nc(F)nc2c1ncn2[C@H]1C[C@H](O)[C@@H](CO)O1 [2-fluoro-2'-deoxyadenosine]
inhibition of adenylyl cyclases via P-site [5]: inhibitory

Nc1nc(F)nc2c1ncn2[C@@H]1O[C@H](CO)[C@@H](O)[C@H]1O [2-fluoroadenosine]
inhibition of adenylyl cyclases via P-site [5]: inhibitory

C[C@H]1O[C@@H](n2cnc3c(N)ncnc32)C[C@@H]1OC(=O)c1ccc(S(=O)(=O)F)cc1 [3'-(4-fluorosulfonylbenzoyl) -2', 5'-dideoxyadenosine]
inhibition of adenylyl cyclases via P-site [5]: inhibitory effectiveness

C[C@H]1O[C@@H](n2cnc3c(N)ncnc32)C[C@@H]1OC(=O)CCC(=O)O [3'-succinyl-2', 5'-dideoxyadenosine]
inhibition of adenylyl cyclases via P-site [5]: inhibitory effectiveness

Nc1ncnc2c1ncn2[C@@H]1O[C@H](CO)[C@@H](OP(=O)(O)O)[C@H]1O [3'AMP]
IC50 [1, 8]: 8900 nM

Nc1ncnc2c1ncn2C1CCCO1 (centres unmarked) [9-(tetrahydro-2-furyl)-adenine]
IC50 [5, 10]: ~10 µM

CC1CCC(n2cnc3c(N)ncnc32)O1 (centres unmarked) [9-(tetrahydro-5-methyl-2-furyl)-adenine]
IC50 [5, 10]: ~8 µM

Nc1ncnc2c1ncn2C1CCCC1 [9-cyclopentyl-adenine]
IC50 [5, 10]: ~20 µM

Nc1ncnc2c1ncn2Cc1ccco1 [9-furfuryl-adenine]
IC50 ([5]; unit printed kM): ~26 µM

Nc1ncnc2c1ncn2[C@@H]1O[C@H](CO)[C@@H](O)[C@@H]1O [9-β-D-arabinofuranosyl-adenine]
IC50 [5, 10]: ~100 µM

Nc1ncnc2c1ncn2[C@@H]1O[C@H](CO)[C@H](O)[C@H]1O [9-β-D-xylofuranosyl-adenine]
IC50 [5, 10]: ~25 µM

C[C@H]1O[C@@H](n2cnc3c(N)ncnc32)C[C@@H]1OP(=O)(O)OCCN(C)S(=O)(=O)c1cccc2c(N(C)C)cccc12 [Compound 1, 2', 5'-dideoxyadenosine-3'-[2-([(5-dimethylamino-1-naphthalenesulfonamido) -(N-methyl)]-aminoethyl)-phosphate]]
IC50 [1, 8]: 3000 nM | inhibition of adenylyl cyclase activity compared with adenosine [1]: inhibited adenylyl cyclase activity at concentrations considerably lower than that for adenosine

CC(C)CCC[C@@H](C)[C@H]1CC[C@H]2[C@@H]3CC=C4C[C@@H](OP(=O)(O)O[C@H]5C[C@H](n6cnc7c(N)ncnc76)O[C@@H]5C)CC[C@]4(C)[C@H]3CC[C@]12C [Compound 2, 2', 5'dideoxyadenosine-3'-[(3-cholesteryl)-phosphate]]
IC50 [1, 8]: > 300000 nM | inhibition of adenylyl cyclase activity compared with adenosine [1]: less effective than adenosine in the inhibition of adenylyl cyclase activity

C[C@H]1O[C@@H](n2cnc3c(N)ncnc32)C[C@@H]1OP(=O)(O)OP(=O)(O)O [Compound 3, 2', 5'-dideoxyadenosine-3'-diphosphate]
IC50 [1, 8]: 100 nM | IC50 [1, 9]: 100 nM | IC50 [6]: 560 nM | IC50 [2]: 250 nM

C[C@H]1O[C@@H](n2cnc3c(N)ncnc32)C[C@@H]1OP(=O)(O)OP(=O)(O)OP(=O)(O)O [Compound 4, 2', 5'-dideoxyadenosine-3'-triphosphate]
IC50 [1, 8]: 40 nM | IC50 [1, 9]: 40 nM | IC50 [6]: 120 nM | IC50 [2]: 170 nM

C[C@H]1O[C@@H](n2cnc3c(N)ncnc32)C[C@@H]1OP(=O)(O)OP(=O)(O)OP(=O)(O)OP(=O)(O)O [Compound 5, 2', 5'-dideoxyadenosine-3'-tetraphosphate]
IC50 [1, 8]: 10 nM

C[C@H]1O[C@@H](n2cnc3c(N)ncnc32)C[C@@H]1OP(O)(O)=S [Compound 8, 2', 5'-dideoxyadenosine-3'-O-thiophosphate]
inhibition of adenylyl cyclase activity compared with adenosine [1]: inhibited adenylyl cyclase activity at concentrations considerably lower than that for adenosine

Nc1ncnc2c1ncn2[C@H]1C[C@H](OP(=O)(O)OP(=O)(O)O)[C@@H](CO)O1 [Compound 11, 2'-deoxyadenosine-3'-diphosphate]
IC50 [1, 8]: 140 nM

Nc1ncnc2c1ncn2[C@H]1C[C@H](OP(=O)(O)OP(=O)(O)OP(=O)(O)O)[C@@H](CO)O1 [Compound 12, 2'-deoxyadenosine-3'-triphosphate]
IC50 [1, 8]: 90 nM

Nc1ncnc2c1ncn2[C@H]1C[C@H](OP(=O)(O)OP(=O)(O)OP(=O)(O)OP(=O)(O)O)[C@@H](CO)O1 [Compound 13, 2'-deoxyadenosine-3'-tetraphosphate]
IC50 [1, 8]: 13 nM

Nc1ncnc2c1ncn2[C@H]1C[C@H](OP(O)(O)=S)[C@@H](CO)O1 [Compound 16, 2'-deoxyadenosine-3'-O-thiophosphate]
inhibition of adenylyl cyclase activity compared with adenosine [1]: inhibited adenylyl cyclase activity at concentrations considerably lower than that for adenosine

Nc1nc(F)nc2c1ncn2C1CCCC1 [Compound 19, 9-cyclopentyl-2-fluoro-9H-adenine]
inhibition of adenylyl cyclase activity compared with adenosine [1]: inhibited adenylyl cyclase activity at concentrations considerably lower than that for adenosine | inhibition of the enzyme in intact cells and tissues [7]: inhibit the enzyme in intact cells and tissues

Nc1ncnc2c1ncn2[C@@H]1O[C@H](CO)[C@@H](OP(=O)(O)OP(=O)(O)O)[C@H]1O [Compound 34, adenosine-3'-diphosphate]
IC50 [1, 8]: 3900 nM

Nc1ncnc2c1ncn2[C@@H]1O[C@H](CO)[C@@H](OP(=O)(O)OP(=O)(O)OP(=O)(O)O)[C@H]1O [Compound 35, adenosine-3'-triphosphate]
IC50 [1, 8]: 2000 nM

Nc1ncnc2c1ncn2[C@@H]1O[C@H](CO)[C@@H](O)[C@H]1O [adenosine]
IC50 [3]: 82 µM

Nc1cc[nH]c(=O)n1 [cytosine]
inhibition of adenylyl cyclases via P-site [5]: inactive

Nc1ncnc2c1ncn2C[C@@H](O)[C@@H](O)C(=O)O [eritadenine]
IC50 [5, 10]: 6 to 12 µM

Nc1nc2c(ncn2[C@@H]2O[C@H](CO)[C@@H](O)[C@H]2O)c(=O)[nH]1 [guanosine]
inhibition of adenylyl cyclases via P-site [5]: inactive

OC[C@H]1O[C@@H](n2cnc3c(O)ncnc32)[C@H](O)[C@@H]1O [inosine]
inhibition of adenylyl cyclases via P-site [5]: inactive

Cc1cn([C@H]2C[C@H](O)[C@@H](CO)O2)c(=O)[nH]c1=O [thymidine]
inhibition of adenylyl cyclases via P-site [5]: inactive

O=c1ccn([C@@H]2O[C@H](CO)[C@@H](O)[C@H]2O)c(=O)[nH]1 [uridine]
inhibition of adenylyl cyclases via P-site [5]: inactive
